The source made the active and inactive calls. The calls are words filed in the database; no cut-off is given here.

In assay [1] the target is T1, DNA topoisomerase 1 (Homo sapiens) (UniProt P11387).
T1 sequence (whole entry): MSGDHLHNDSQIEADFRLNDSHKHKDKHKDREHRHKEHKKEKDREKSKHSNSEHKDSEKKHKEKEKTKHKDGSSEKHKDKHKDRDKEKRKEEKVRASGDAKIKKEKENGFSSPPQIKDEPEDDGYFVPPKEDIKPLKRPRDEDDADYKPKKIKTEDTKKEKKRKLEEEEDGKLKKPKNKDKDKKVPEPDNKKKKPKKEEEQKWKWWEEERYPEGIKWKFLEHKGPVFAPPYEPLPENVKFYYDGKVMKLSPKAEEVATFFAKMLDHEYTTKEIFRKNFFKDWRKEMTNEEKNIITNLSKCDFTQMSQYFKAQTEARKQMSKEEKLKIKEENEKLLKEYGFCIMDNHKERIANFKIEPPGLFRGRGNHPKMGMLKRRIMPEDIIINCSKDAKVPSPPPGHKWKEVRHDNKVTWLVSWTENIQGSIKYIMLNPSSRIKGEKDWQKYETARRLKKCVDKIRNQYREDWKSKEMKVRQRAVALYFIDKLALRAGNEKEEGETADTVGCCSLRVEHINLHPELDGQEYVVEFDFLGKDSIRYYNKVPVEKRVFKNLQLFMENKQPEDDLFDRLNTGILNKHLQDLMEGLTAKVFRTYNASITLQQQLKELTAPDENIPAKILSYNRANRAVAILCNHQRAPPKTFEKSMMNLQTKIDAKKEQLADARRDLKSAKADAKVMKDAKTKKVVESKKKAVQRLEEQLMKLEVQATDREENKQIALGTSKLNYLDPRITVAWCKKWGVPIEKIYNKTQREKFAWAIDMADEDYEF
In words: Inhibition of human Topoisomerase 1 at 0.1 to 100 uM. Particulars: dose 0.1-100 µM.

Assay [2] deals with T1, DNA topoisomerase 1 (Homo sapiens). In words: Inhibition of human Topoisomerase 1 at 1 to 100 uM. The conditions noted are these: dose 1-100 µM.
For assay [3] the target is unchanged. In words: Inhibition of human Topoisomerase 1 at 10 to 100 uM. Particulars: dose 10-100 µM.
Assay [4] has the same target. In words: Inhibition of human Topoisomerase 1 at 100 uM.

For the compound `CSc1ccc(C2c3cc4ccccc4nc3-c3nc(=O)c4ccccc4n32)cc1` (configuration not stated), in assay [1], the inhibition entry was “Active”. With `CSc1ccc([C@@H]2C[C@H](O)c3nc4ccccc4c(=O)n32)cc1`, the inhibition entry in assay [2] is “Active”. As to `COc1ccc(C2c3cc4ccccc4nc3-c3nc(=O)c4ccccc4n32)cc1` (configuration not stated), the inhibition result in assay [1] was “Active”.

With `COc1cccc(C2c3cc4ccccc4nc3-c3nc4ccccc4c(=O)n32)c1` (configuration not stated), the inhibition result in assay [1] was “Active”.

`O=c1c2ccccc2nc2n1[C@H](c1cccc(Br)c1)C[C@@H]2O`: the inhibition entry in assay [3] is “Active”.

As for `COc1cc(C2c3cc4ccccc4nc3-c3nc4ccccc4c(=O)n32)cc(OC)c1OC` (configuration not stated), the inhibition entry in assay [1] was “Active”. The same measure, in the same setting: as for `O=c1c2ccccc2nc2n1C(c1ccc(C(F)(F)F)cc1)c1cc3ccccc3nc1-2` (configuration not stated), the entry is “Active”. With `O=c1c2ccccc2nc2n1C(c1ccc(Br)cc1)c1cc3ccccc3nc1-2` (configuration not stated), in assay [1], the inhibition entry was “Active”. Consider `O=c1nc2n(c3ccccc13)C(c1ccc(Cl)cc1)c1cc3ccccc3nc1-2` (configuration not stated), for which, in assay [1], the inhibition entry was “Active”.

With `Cc1ccccc1C1c2cc3ccccc3nc2-c2nc(=O)c3ccccc3n21` (configuration not stated), the inhibition result in assay [1] is “Active”. On the same count and under the same terms, next, `O=c1c2ccccc2nc2n1C(c1cccc(Br)c1)c1cc3ccccc3nc1-2` (configuration not stated): “Active”. Still for that read-out and setting: as for `Cc1ccc(C2c3cc4ccccc4nc3-c3nc(=O)c4ccccc4n32)cc1` (configuration not stated), the entry is “Active”. As to `O=c1c2ccccc2nc2n1[C@H](c1ccc(C(F)(F)F)cc1)C[C@@H]2O`, the inhibition result in assay [4] was “Active”.

As for `O=c1nc2n(c3ccccc13)C(c1cccc(Br)c1)c1cc3ccccc3nc1-2` (configuration not stated), the inhibition entry in assay [1] was “Active”. `O=c1c2ccccc2nc2n1C(c1ccccc1)c1cc3ccccc3nc1-2` (configuration not stated): the inhibition result in assay [1] was “Active”. Take `O=c1nc2n(c3ccccc13)C(c1ccccc1)c1cc3ccccc3nc1-2` (configuration not stated): the inhibition result in assay [1] is “Active”. Regarding `COc1cccc(C2c3cc4ccccc4nc3-c3nc(=O)c4ccccc4n32)c1` (configuration not stated), in assay [1], the inhibition entry was “Active”.

As to `O=c1nc2n(c3ccccc13)C(c1ccc(F)cc1)c1cc3ccccc3nc1-2` (configuration not stated), the inhibition result in assay [1] is “Active”. As for `Cc1ccccc1C1c2cc3ccccc3nc2-c2nc3ccccc3c(=O)n21` (configuration not stated), the inhibition result in assay [1] is “Active”. Take `CSc1ccc(C2c3cc4ccccc4nc3-c3nc4ccccc4c(=O)n32)cc1` (configuration not stated): the inhibition entry in assay [1] is “Active”. In the case of `COc1ccc(C2c3cc4ccccc4nc3-c3nc4ccccc4c(=O)n32)cc1` (configuration not stated), in assay [1], the inhibition entry is “Active”.

In the case of `O=c1nc2n(c3ccccc13)C(c1ccc(C(F)(F)F)cc1)c1cc3ccccc3nc1-2` (configuration not stated), in assay [1], the inhibition entry was “Active”. The same measure, in the same setting: next, `O=c1c2ccccc2nc2n1C(c1ccc(F)cc1)c1cc3ccccc3nc1-2` (configuration not stated): “Active”; `O=c1c2ccccc2nc2n1C(c1ccc(Cl)cc1)c1cc3ccccc3nc1-2` (configuration not stated): “Active”. For the compound `COc1cc(C2c3cc4ccccc4nc3-c3nc(=O)c4ccccc4n32)cc(OC)c1OC` (configuration not stated), the inhibition result in assay [1] is “Active”.

Consider `O=c1nc2n(c3ccccc13)C(c1ccc(Br)cc1)c1cc3ccccc3nc1-2` (configuration not stated), for which the inhibition entry in assay [1] is “Active”.

For the compound `Cc1ccc(C2c3cc4ccccc4nc3-c3nc4ccccc4c(=O)n32)cc1` (configuration not stated), the inhibition entry in assay [1] is “Active”.

(Values after ChEMBL document CHEMBL4814042, “Design and synthesis of C-aryl angular luotonins via a one-pot aza-Nazarov-Friedlander sequence and their Topo-I inhibition studies along with C-aryl vasicinones and luotonins” (Bioorg Med Chem Lett, 2021).)
